# Peptide text beside a SMILES is read from it. * marks the point of attachment. Cholyl = C[C@H](CCC(=O)*)[C@H]1CC[C@H]2[C@@H]3[C@H](O)C[C@@H]4C[C@H](O)CC[C@]4(C)[C@H]3C[C@H](O)[C@]12C
# Tests used:
# EL4 cells = assay: Cytochrome C cargo release cell death assay; format: cell-based
# Description: FIGS. 3A and 3B show the ability of CA-SV40 to promote cargo release in the cytoplasm of target cells.
# Cytochrome C is a protein that is normally entrapped in the mitochondria but can be released upon intrinsic signaling known to trigger apoptosis. An experiment was designed where recombinant cytochrome C was added to EL4 cells either alone or in combination with CA-SV40 (47 μM) (FIG. 3A). […] In addition, it may explain the increase in intracellular ROS levels as it can damage endosomes/vesicles responsible for intracellular ROS transport.
# EL4 T-cell lymphoma = assay: Cell death (kill) curve analysis by flow cytometry; conditions: alone, at any of the concentrations tested
# EL4 lymphoma [1] = assay: EL4 tumor model in vivo; design: species or system C57BL/6 mice; conditions: for survival at day 40 / tumor growth: alone
# Text: FIGS. 4A to 4F show the antitumoral effect of CA-SV40 on EL4 lymphoma in vivo. […] EL4 tumors without any treatment (i.e., PBS) are shown in black, whereas anti-PD-1 treatment alone is in orange and anti-CTLA-4 treatment alone is in purple. […]
# Female C57BL/6 mice (n=10/group) received a SC injection of 5×10^5 EL4 cells at Day 0. Five days later (appearance of palpable tumors˜40-60 mm^3), mice were SC-injected with PBS, CA-SV40, anti-PD-1, or anti-CTLA4, alone or in combination.
# The apoptosis observations obtained in vitro prompted us to explore whether CA-SV40 administration to mice with pre-established tumors can trigger a therapeutic effect. First, CA-SV40 was delivered alone using three different doses (47 μM, 95 μM, and 190 μM) every 48 h following the appearance of palpable tumors (EL4) (FIG. 4A) for a total of 5 injections. […] To further improve this response, we next combined the highest tested CA-SV40 dose (delivered daily instead of every 48 h) with the immune-checkpoint inhibitors (ICIs) anti-PD-1 or anti-CTLA4 (FIG. 4D). […]
# EL4 lymphoma cells [2] = assay: Rescue from CA-SV40-triggered apoptosis by ROS blockers; format: cell-based
# Description: (§1) Percentages of double-positive stained cells is shown, which represents late apoptotic cells.
# (§2) To further uncover the mechanism of cell death, we next investigated whether CA-SV40-triggered apoptosis is strictly occurring in the absence of necrosis. To do so, a co-staining experiment was conducted using propidium iodine (PI) and Annexin-V at different time points. […] Since a large number of anti-cancer molecules can trigger cell death via release or de novo production of reactive oxygen species (ROS), we next stained the EL4 lymphoma cells treated with CA-SV40 at the IC50 dose with MitoSOX™. […] This observation led us to test whether treatment with MitoTempo™ (blocking mitochondria-specific ROS) or N-acetylcysteine (NAC—building block for GSH) rescue from CA-SV40-triggered cell death.
# EL4 lymphoma cells [3] = assay: Annexin V apoptosis assessment by flow cytometry; format: cell-based; conditions: 190 μM
# Description: Annexin-V staining percentage after treatment with different Cholic acid-NLS conjugates (190 μM) is shown relative to live EL4 lymphoma cells (i.e., PBS treated cancer cells) by flow cytometry.
# [4] = tested on: CT-26 colon carcinoma cells; assay: Annexin V apoptosis assessment by flow cytometry; format: cell-based; conditions: 190 μM
# 4T1 breast cancer cells = assay: Annexin V apoptosis assessment by flow cytometry; format: cell-based; conditions: 4T-1; 190 μM
# mesenchymal stem cells = assay: Annexin V apoptosis assessment on normal cells; format: cell-based; conditions: 190 μM
# macrophages = assay: Annexin V apoptosis assessment on normal cells; format: cell-based; conditions: 190 μM
# [5] = tested on: bone marrow-derived dendritic cells; assay: Annexin V apoptosis assessment on normal cells; format: cell-based, mouse; conditions: 190 μM
# Description: Mouse bone marrow derived DCs (BMDCs) were generated by flushing the whole marrow from mouse femurs using RPMI™ 1640 supplemented with 10% fetal bovine serum (FBS), 50 U/mL Penicillin-Streptomycin, 2 mM L-glutamine, 10 mM HEPES, 1% MEM Non-essential Amino Acids, 1 mM Sodium Pyruvate, 0.5 mM β-mercaptoethanol. Following red blood cell lysis, cells were then cultured in media supplemented with 50 ng/mL murine recombinant GM-CSF. The media was changed on days 2, 4, 6 and 8. On day 9, the media was replaced to include recombinant murine GM-CSF and LPS from Escherichia coli O111 (1 ng/mL) to stimulate DC maturation. Mature DCs were assessed by flow cytometry for their surface expression of CD3, CD19, NK1.1, CD11c, CD80, CD86, and I-A^b.
# EL4 lymphoma [6] = assay: PI / Annexin-V co-staining time course; format: cell-based
# Description: as §1, §2
# EL4 lymphoma cells [7] = assay: MitoSOX staining for ROS production; format: cell-based; conditions: CA-SV40 at the IC50 dose, up to 8 h
# Description: as §1, §2
# [8] = highest tested dose (190 μM), every 48 h, 5 injections
compound,measurement,setting,value
"cytochrome C: recombinant cytochrome C protein, cargo added to EL4 cells [reference compound]",cell death,EL4 cells; recombinant cytochrome C alone,did not trigger cell death
"SV40 NLS: NLS from SV-40 large T-antigen (e.g., PKKKRKV), unconjugated negative control",cytotoxic activity,EL4 T-cell lymphoma,did not exhibit any cytotoxic activity
CSCC[C@H](NC(=O)[C@H](CS)NC(=O)CC[C@@H](C)[C@H]1CC[C@H]2[C@@H]3[C@H](O)C[C@@H]4C[C@H](O)CC[C@]4(C)[C@H]3C[C@H](O)[C@]12C)C(=O)NCC(=O)N[C@@H](CCCNC(=N)N)C(=O)N[C@H](C(=O)N[C@@H](CCCNC(=N)N)C(=O)N[C@H](C(=O)N[C@@H](CCCCN)C(=O)N[C@H](C(=O)N[C@H](C(=O)N[C@@H](CCCCN)C(=O)N[C@@H](CCCCN)C(=O)N[C@@H](C)C(=O)N[C@@H](C)C(=O)NCC(=O)NCC(=O)O)C(C)C)[C@@H](C)O)[C@@H](C)O)C(C)C [CA-NLS1 RPS17] (Cholyl-CMGRVRTKTVKKAAGG-OH; N-terminus and C-terminus assumed),survival at day 40,EL4 lymphoma [1]; [8],20%
same,tumor growth,EL4 lymphoma [1]; [8],significantly delayed tumor growth
"CC(=O)N[C@@H](CS)C(=O)O [NAC, N-acetylcysteine]",rescue from CA-SV40-triggered apoptosis,EL4 lymphoma cells [2]; CA-SV40 at IC50 dose,completely blocked apoptosis
same,rescue from CA-SV40-triggered apoptosis,EL4 lymphoma cells [2]; CA-SV40 at higher doses (IC100),incomplete but significant blockade
CC[C@H](C)[C@H](NC(=O)[C@H](CCCNC(=N)N)NC(=O)[C@H](CCCCN)NC(=O)[C@H](CCSC)NC(=O)[C@H](CC(C)C)NC(=O)[C@H](Cc1c[nH]cn1)NC(=O)[C@@H](NC(=O)[C@@H](NC(=O)[C@H](Cc1ccc(O)cc1)NC(=O)CNC(=O)[C@H](C)NC(=O)[C@@H](NC(=O)[C@H](CCCCN)NC(=O)[C@H](CC(N)=O)NC(=O)[C@H](CCCNC(=N)N)NC(=O)[C@H](CC(C)C)NC(=O)[C@H](CCCCN)NC(=O)[C@H](CCCCN)NC(=O)[C@H](CO)NC(=O)[C@H](CS)NC(=O)CC[C@@H](C)[C@H]1CC[C@H]2[C@@H]3[C@H](O)C[C@@H]4C[C@H](O)CC[C@]4(C)[C@H]3C[C@H](O)[C@]12C)[C@@H](C)CC)C(C)C)[C@@H](C)O)C(=O)O [CA-NLS3 RPS17] (Cholyl-CSKKLRNKIAGYVTHLMKRI-OH; N-terminus and C-terminus assumed),survival at day 40,EL4 lymphoma [1]; [8],20%
same,tumor growth,EL4 lymphoma [1]; [8],significantly delayed tumor growth
CC(C)[C@H](NC(=O)[C@H](CCCCN)NC(=O)[C@H](CCCNC(=N)N)NC(=O)[C@H](CCCCN)NC(=O)[C@H](CCCCN)NC(=O)[C@H](CCCCN)NC(=O)[C@@H]1CCCN1C(=O)CNC(=O)[C@H](Cc1ccc(O)cc1)NC(=O)CNC(=O)[C@H](CS)NC(=O)CC[C@@H](C)[C@H]1CC[C@H]2[C@@H]3[C@H](O)C[C@@H]4C[C@H](O)CC[C@]4(C)[C@H]3C[C@H](O)[C@]12C)C(=O)NCC(=O)NCC(=O)O [CA-SV40] (Cholyl-CGYGPKKKRKVGG-OH; N-terminus and C-terminus assumed),cell death through apoptosis (Annexin V staining),EL4 lymphoma cells [3],triggers cell death through apoptosis
same,cytotoxicity compared with CA-GWG-SV40,EL4 lymphoma cells [3],notably higher
same,cell death through apoptosis (Annexin V staining),[4],triggers cell death through apoptosis
same,cell death through apoptosis (Annexin V staining),4T1 breast cancer cells,triggers cell death through apoptosis
same,apoptosis in normal cells,mesenchymal stem cells,induce apoptosis
same,apoptosis in normal cells,macrophages,induce apoptosis
same,apoptosis in normal cells,[5],induce apoptosis
same,time at which apoptosis started occurring post-treatment,EL4 lymphoma [6]; PI/Annexin-V,1 h
same,time to complete death,EL4 lymphoma [6]; PI/Annexin-V,8 h
same,necrotic cells (PI+/Annexin V−),EL4 lymphoma [6]; time course,no necrotic cells
same,ROS production (MitoSOX signal),EL4 lymphoma cells [7],time-dependent ROS production
same,increase in cell death,EL4 cells; CA-SV40 47 μM combined with cytochrome C,three-fold
same,cell death,EL4 cells; CA-SV40 47 μM in combination with cytochrome C,61%
same,cell death,"EL4 cells; before combination (weak CA-SV40 dose, 47 μM)",19%
same,antitumoral response,"EL4 lymphoma [1]; highest dose daily, combined with anti-PD-1 or anti-CTLA4, vs CA-SV40 alone",significantly enhanced the antitumoral response
same,tumor growth,EL4 lymphoma [1]; highest dose delivered daily,significant delays in tumor growth
same,tumor growth,EL4 lymphoma [1]; [8],significantly delayed tumor growth
